Measured values taken from patent publication US9862684B2, “Modulation of K2P channels” (The Regents of the University of California, priority 2013, dated 2018).

Target: T1, K2P2.1 (TREK-1) G137I (Mus musculus, UniProt P97438, G152I)
T1 construct: expressed in transfected cells; host or cells: Xenopus oocytes
T1 sequence (P97438 1-411 isoform P97438-2 G137I): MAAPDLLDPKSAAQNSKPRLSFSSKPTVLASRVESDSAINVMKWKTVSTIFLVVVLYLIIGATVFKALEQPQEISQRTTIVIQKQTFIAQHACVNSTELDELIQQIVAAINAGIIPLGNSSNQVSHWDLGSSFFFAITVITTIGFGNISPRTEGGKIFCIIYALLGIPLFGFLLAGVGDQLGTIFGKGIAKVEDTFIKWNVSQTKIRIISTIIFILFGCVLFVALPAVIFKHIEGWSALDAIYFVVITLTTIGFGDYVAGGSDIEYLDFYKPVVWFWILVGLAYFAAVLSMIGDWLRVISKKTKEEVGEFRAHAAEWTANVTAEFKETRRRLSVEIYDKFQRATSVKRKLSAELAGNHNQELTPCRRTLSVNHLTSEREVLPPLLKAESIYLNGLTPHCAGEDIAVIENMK
Assay: Two-electrode voltage clamp, Xenopus oocytes, C-type gate mutant G137I
Type: cell-based, Murine
Protocol: I-V curves were measured by two-electrode voltage clamp of Xenopus oocytes in b, 90 mM [K^+]o. or c-e, 2 mM [K^+]o. […] Data (were measured at 20 mV (90 mM [K^+]o) or 0 mV (2 mM [K^+]o), normalized to basal channel activity, and fitted to the Hill equation. Error bars indicate s.e., n≧6, N≧2.
Murine K2P channels were cloned into pGEMHE/pMO {Bagriantsev, 2011}, IRES-GFP (Invitrogen), or pYES2-MET25 (high copy 2μ, URA3) {Minor, 1999} for expression in oocytes, HEK-293T cells, and yeast, respectively, using standard molecular biology procedures, and verified by DNA sequencing.
Two-electrode voltage clamp recordings were performed from defolliculated stage V-VI Xenopus oocytes 24-48 hours after injection with 0.015-6.0 ng cRNA, using microelectrodes (0.3-3.0 MΩ) filled with 3M KCl. Data was acquired using the GeneClamp 500B (MDS Analytical Technologies) amplifier controlled by the pClamp software (Molecular Devices), and digitized at 1 kHz using Digidata 1332A (MDS Analytical Technologies). Recording solutions (mM): 2K (96 NaCl, 2 KCl, 1.8 CaCl2, 2 MgCl2), 90K (90 KCl, 8 NaCl, 1.8 CaCl2, 2 MgCl2), were buffered 5 mM HEPES pH 7.4. For K2P recordings, currents we elicited by a 1 second long ramp from −150 to +50 mV from a holding potential of −80 mV (2K), or −100 to +50 mV from a holding potential of 0 mV (90K). […]

## CC1(C)c2cc(Cl)ccc2N(CCc2nnn[nH]2)c2ccc(Cl)cc21 [ML67-33, 2,7-dichloro-9,9-dimethyl-10-[2-(1H-tetrazol-5-yl)ethyl]acridine]
  response to ML67-33 activation (in words): completely resistant
At 150 μM
  Emax (fold) at 150 μM: 0.9 ± 0.1 at 150 μM fold
